Source: patent US11730769B2, “Compositions and methods for Williams Syndrome (WS) therapy” (MASSACHUSETTS INSTITUTE OF TECHNOLOGY, priority 2017, dated 2023)
“Also recorded” adds a separate entry of the source. Read-outs that look alike come from different tables or passages of the source.

Key:
[1] = patients with MS, all studies; cited from earlier work
[2] = tested on: Gtf2i cKO mice; assay: Evoked field potential recordings in corpus callosum; type: in vivo; settings: acute 4-AP administration
Protocol: In vivo evoked field potential recording in corpus callosum was referenced to that from in vitro studies (69, 70). Animals were anesthetized with urethane (1,000 mg/kg) and placed on a stereotaxic instrument. Body temperature was maintained by thermostat at 37.5-38° C. Craniotomy was performed and dura was kept intact. Stainless steel stimulation electrode (300˜500 kOhm, WPI) was positioned in corpus callosum in left hemisphere (1.5 mm posterior to Bregma, 1 mm lateral from midline, 1,000˜1,300 μm beneath cortical surface), and tungsten recording electrode (2˜3 MOhm, FHC) was positioned in corpus callosum at same coronal plane in right hemisphere (1.5 mm posterior to Bregma, 1 mm from midline, 1,000˜1,300 μm beneath cortical surface). Electrical stimulation (0˜200 uA, 0.2 ms pulse width, 0.2 Hz) was delivered while both positions of stimulation and recording electrodes were slightly adjusted to optimize signal. Signals were filtered at 0.1-3,000 Hz and gained at 1,000 times (Model 1700, A-M Systems), digitized and sampled at 10,000 Hz (Digidata 1440A, Molecular Devices), and analyzed offline (Clampfit). […] Response amplitude was determined by measuring the vertical distance from negative peak to the tangent joining preceding and following positivities. […]

[3] = tested on: Gtf2i cKO mice; assay: Three-chamber social preference test; type: in vivo; settings: acute 4-AP 1 mg/kg i.p., three hours post administration
Protocol: Stranger mice were wildtype S129 Sv males (Jackson Laboratory) with matched age and body weight to test mice. Stranger mice were habituated by placing them inside an inverted wire cup for 30 min, two sessions per day for three consecutive days before tests. Each stranger mouse was used a maximum of two times per day. The social test apparatus was made of a clear Plexiglas box (65 cm (L)×44 cm (W)×30 cm (H)) with a removable floor and partitions dividing the box into left, center, and right chambers. The center chamber (21 cm×22 cm) was half the width of the left and right chambers (each is 21 cm×44 cm). These three chambers were interconnected with 5 cm openings between each chamber that could be closed or opened manually with a lever-operated door. The inverted wire cups containing the stranger mice were cylindrical, 10 cm in height, with a bottom diameter of 10 cm and with metal bars spaced 0.8 cm apart. A weighted cup was placed on top of the inverted wire cups to prevent the test mice from climbing onto the wire cup. […] Then, experimenter blinded to genotypes analyzed for timespent in close proximity to the stranger mouse or object was analyzed using the Noldus Ethovison XT software. Social preference index was calculated as follows: (time in close interaction with stranger)/(time in close interaction with object). […]

[4] = tested on: normal adult myelinated axons; settings: cited from earlier work
[5] = tested on: chronically injured spinal cord of guinea pigs; settings: cited from earlier work
[6] = tested on: Shaker channels; settings: at concentration of 1 mM; cited from earlier work
[7] = tested on: Gtf2i cKO mice; assay: Horizontal ladder walking test; type: in vivo; settings: acute 4-AP 1 mg/kg i.p., three hours post administration
Protocol: Mice were tested for their ability to walk on a horizontal ladder with irregularly spaced rungs, following the procedure described previously (44). Animals were trained to cross the ladder until their performance achieved the plateau (with a forelimb error of 20% or less). The irregular pattern was changed from trial to trial during training. All trials were video recorded with Hotshot e64 and paw placement was analyzed. The paw placement on rungs were categorized as Hit (platar contact and digits closure), Miss (paw falls between rungs) and Slip (imprecise contact with one or few digits). Experimenter was blinded to genotypes.
Mice were habituated to needle injections (i.p.) for three days before behavioral tests, by two i.p. injections of 200 μL of saline administered per day. […] All behavioral tests were therefore accomplished three hours post systemic administration. Saline-injected mice in each genotype (Control or cKO mice) were referred as the baseline group for the treatment group, which was injected with 4-AP. Experimenter was blinded to genotypes.

[8] = cited from earlier work
[9] = tested on: Gtf2i cKO mice; assay: Intra-cortical microstimulation (ICMS) and EMG recording (corticospinal output); type: in vivo; settings: acute 4-AP 2 mg/kg i.p., test 30 to 60 minutes after injection; cKO and control mice
Protocol: ICMS and EMG recording protocol was adopted from previous studies (71, 72). Each animal was anesthetized with ketamine-xylazine (100 mg/kg ketamine, 10 mg/kg xylazine, i.p.). Anesthesia level was maintained at a steady level to that animal was unresponsive to toe pinch while muscle tone was present.
A digital stereotaxic frame was used to mount the animal's head and guide stimulation electrode (stainless steel, 0.5 MOhm; World Precision Instruments) over an array of motor cortical sites (0.9 mm caudal and 0.6 mm rostral to Bregma, 0.9 mm to 1.8 mm lateral to midline, with 300 μm spacing between sites). Stimulation electrode was inserted into the cortex at 500 μm depth, targeting layer V motor neurons. The exposed brain area was immersed with silicon oil to avoid dehydration. Electrical stimulation (biphasic, 0.2 ms pulse width, 333 Hz, 45 ms) was adjusted between 100 to 300 μA and located at the position that has the lowest threshold to trigger EMG signal. Stimulation intensity of two folds of threshold was then used for EMG recording and analysis. To perform EMG recording, an incision was made on hindlimb to expose the muscles while fascia remained intact. […] EMG signals were acquired using differential AC amplifier (1700, A-M Systems, WA) with 10-1000 Hz bandpass filter, sampled at 5 kHz using a digitizer (Digidata 1440A, Axon Instruments), and analyzed by pClamp Software. […]

[10] = oral, non-sustained release, animals; cited from earlier work
[11] = cited from earlier work; remark: listed apart in the source
[12] = cited from earlier work; remark: listed apart in the source
[13] = tested on: socially isolated mice; settings: cited from earlier work
[14] = tested on: Gtf2i cKO mice; assay: Number of myelinating oligodendrocytes (immunofluorescence); type: in vivo; settings: clemastine 10 mg/kg daily by gastric gavage for 14 days
Protocol: Basic immunofluorescence procedure was used as previously described (68). Mice were deeply anesthetized with isoflurane and transcardially perfused with 15 ml ice-cold PBS solution followed by 15 ml fresh ice-cold 4% paraformaldehyde (PFA) in PBS. Brains were dissected and kept in 4% PFA overnight at 4° C. and then sectioned at 100 μm thickness by vibratome (Leica). Floating brain slices were washed 3 times, 5 min each, with PBS and permeabilized with 1.2% Triton X-100 in PBS for 15 min at room temperature. Slices were then washed 3 times, 5 min each, followed by blocking with 5% normal goat serum, 2% BSA, 0.2% Triton X-100 in PBS for 1 h at room temperature. Primary antibodies diluted in blocking buffer were applied to sections overnight at 4° C. […]
To quantify cellular properties in the cortex, images were taken by an experimenter blinded to genotypes with a 10× magnification at the motor cortex area at bregma 0.5 mm. […] The midline of the CC was imaged at the same bregma, using a 40× magnification, and the whole depth of the CC was imaged by taking 10 images as part of a Z-stack serial imaging, and then all images were stacked together to a single image which was then analyzed for quantification. Cell numbers were quantified blindly with automation using ImageJ. […] The pixel intensity of H3ac and H3K9me3 was quantified using ImageJ, as was previously described (37). […]

[15] = molecular target: N-type calcium channels (Homo sapiens, UniProt Q00975); settings: read-out: EC50 for activation of N-type calcium channels; cited from earlier work
[16] = molecular target: P/Q-type calcium channels (Homo sapiens, UniProt O00555); settings: read-out: EC50 for activation of P/Q-type calcium channels; cited from earlier work
Sequence of P/Q-type calcium channels (O00555 whole entry): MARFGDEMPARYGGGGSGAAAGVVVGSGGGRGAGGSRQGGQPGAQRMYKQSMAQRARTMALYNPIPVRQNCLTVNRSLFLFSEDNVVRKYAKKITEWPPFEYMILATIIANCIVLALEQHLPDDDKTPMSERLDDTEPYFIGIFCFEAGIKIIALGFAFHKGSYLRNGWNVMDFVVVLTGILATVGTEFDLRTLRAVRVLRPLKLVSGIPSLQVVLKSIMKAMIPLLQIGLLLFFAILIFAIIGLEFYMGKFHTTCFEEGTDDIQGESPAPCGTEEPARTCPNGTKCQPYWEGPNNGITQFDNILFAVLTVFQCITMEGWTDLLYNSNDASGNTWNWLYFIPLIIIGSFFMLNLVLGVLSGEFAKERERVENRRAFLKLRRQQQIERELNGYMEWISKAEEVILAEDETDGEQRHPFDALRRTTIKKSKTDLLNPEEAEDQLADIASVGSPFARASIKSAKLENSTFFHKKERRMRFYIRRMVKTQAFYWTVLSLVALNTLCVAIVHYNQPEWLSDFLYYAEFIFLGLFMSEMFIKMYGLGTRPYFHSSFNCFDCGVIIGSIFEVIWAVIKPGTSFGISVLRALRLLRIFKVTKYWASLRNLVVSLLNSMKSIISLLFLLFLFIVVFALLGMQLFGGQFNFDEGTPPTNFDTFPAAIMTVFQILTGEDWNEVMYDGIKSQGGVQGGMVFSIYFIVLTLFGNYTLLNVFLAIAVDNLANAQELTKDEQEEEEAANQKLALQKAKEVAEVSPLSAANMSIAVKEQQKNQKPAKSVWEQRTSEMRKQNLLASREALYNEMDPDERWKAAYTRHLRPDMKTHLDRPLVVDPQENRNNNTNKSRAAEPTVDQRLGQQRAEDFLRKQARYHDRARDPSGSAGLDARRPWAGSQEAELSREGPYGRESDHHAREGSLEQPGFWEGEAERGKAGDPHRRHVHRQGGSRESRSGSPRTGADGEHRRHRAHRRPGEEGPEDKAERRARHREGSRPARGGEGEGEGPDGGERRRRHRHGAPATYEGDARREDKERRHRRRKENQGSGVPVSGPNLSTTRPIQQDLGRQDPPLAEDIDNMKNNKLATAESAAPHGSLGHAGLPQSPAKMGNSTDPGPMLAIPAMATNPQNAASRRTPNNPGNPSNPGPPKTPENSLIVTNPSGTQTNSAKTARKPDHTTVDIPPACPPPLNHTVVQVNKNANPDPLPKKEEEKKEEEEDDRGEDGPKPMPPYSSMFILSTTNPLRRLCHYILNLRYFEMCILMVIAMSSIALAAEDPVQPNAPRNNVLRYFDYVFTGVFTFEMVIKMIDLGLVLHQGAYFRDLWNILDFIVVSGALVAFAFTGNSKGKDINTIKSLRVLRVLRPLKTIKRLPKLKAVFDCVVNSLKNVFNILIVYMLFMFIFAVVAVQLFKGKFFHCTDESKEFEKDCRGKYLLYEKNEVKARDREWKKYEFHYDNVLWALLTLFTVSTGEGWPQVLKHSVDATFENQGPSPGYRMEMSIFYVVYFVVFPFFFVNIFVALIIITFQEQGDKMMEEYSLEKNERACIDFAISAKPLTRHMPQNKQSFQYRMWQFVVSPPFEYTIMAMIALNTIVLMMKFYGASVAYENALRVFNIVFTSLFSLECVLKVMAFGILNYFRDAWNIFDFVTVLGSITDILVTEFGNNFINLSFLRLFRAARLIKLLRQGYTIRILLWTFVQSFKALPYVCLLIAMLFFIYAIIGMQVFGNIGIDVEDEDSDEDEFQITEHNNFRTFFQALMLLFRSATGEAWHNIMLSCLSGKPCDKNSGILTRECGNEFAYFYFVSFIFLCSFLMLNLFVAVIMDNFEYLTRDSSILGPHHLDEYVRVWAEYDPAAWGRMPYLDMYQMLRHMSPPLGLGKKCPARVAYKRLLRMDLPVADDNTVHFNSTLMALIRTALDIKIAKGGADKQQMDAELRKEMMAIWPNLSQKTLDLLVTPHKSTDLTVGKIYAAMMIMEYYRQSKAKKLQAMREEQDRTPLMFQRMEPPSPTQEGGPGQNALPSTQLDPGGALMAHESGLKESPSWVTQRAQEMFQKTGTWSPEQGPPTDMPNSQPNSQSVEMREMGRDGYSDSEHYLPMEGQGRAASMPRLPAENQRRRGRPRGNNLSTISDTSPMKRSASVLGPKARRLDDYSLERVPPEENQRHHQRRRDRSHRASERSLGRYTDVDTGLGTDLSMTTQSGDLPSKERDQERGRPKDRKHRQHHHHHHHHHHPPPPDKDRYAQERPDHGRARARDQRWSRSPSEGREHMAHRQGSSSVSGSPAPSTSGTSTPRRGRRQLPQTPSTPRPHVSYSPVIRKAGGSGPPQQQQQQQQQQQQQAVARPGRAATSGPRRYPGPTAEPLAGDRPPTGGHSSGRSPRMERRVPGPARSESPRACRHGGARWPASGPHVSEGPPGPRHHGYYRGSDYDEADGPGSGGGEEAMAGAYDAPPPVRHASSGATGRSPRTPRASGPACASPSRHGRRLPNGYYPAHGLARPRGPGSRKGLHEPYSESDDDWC
Sequence of P/Q-type calcium channels (P54284 whole entry partner): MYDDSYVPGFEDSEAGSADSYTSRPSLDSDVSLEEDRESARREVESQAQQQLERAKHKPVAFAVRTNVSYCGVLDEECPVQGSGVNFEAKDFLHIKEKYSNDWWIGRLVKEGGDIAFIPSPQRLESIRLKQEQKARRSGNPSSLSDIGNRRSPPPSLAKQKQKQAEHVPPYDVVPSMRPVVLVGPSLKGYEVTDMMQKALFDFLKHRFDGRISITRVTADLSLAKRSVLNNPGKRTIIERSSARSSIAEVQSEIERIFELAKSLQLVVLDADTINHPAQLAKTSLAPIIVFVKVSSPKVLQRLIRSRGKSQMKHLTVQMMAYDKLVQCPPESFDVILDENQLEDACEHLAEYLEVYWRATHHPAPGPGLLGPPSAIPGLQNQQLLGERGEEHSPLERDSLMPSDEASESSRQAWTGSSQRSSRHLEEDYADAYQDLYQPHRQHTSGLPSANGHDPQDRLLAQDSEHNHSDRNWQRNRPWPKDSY
Sequence of P/Q-type calcium channels (P54289 25-946 partner limits assumed): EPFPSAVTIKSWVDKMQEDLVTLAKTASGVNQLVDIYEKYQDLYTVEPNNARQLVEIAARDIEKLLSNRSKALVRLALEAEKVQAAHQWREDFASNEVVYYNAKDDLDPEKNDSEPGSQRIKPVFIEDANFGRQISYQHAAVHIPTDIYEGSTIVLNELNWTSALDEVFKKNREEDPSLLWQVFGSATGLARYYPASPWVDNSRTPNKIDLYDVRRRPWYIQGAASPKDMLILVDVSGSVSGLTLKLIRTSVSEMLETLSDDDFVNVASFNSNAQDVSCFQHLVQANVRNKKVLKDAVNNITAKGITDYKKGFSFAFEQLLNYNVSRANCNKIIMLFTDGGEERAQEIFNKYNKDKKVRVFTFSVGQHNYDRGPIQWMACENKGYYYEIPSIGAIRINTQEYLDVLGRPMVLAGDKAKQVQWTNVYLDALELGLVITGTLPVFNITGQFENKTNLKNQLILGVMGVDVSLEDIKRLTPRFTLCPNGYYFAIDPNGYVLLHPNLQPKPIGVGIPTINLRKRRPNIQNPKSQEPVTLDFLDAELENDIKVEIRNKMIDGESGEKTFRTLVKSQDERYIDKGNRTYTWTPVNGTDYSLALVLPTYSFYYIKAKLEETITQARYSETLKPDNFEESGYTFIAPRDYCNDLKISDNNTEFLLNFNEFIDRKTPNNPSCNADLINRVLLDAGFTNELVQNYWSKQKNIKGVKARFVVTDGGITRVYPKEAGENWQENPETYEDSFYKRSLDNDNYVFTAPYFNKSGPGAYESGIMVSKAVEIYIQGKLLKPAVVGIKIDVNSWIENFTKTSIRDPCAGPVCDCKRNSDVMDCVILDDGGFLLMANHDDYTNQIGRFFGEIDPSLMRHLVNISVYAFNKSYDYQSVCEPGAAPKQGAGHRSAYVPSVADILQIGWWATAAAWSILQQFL
Sequence of P/Q-type calcium channels (P54289 947-1103 partner limits assumed): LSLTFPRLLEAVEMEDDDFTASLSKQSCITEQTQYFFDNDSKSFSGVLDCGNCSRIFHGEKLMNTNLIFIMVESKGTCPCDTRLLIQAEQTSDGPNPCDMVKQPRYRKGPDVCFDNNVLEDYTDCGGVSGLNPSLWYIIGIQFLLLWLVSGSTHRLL

[17] = tested on: L-type calcium channels; settings: read-out: EC50 for activation of L-type calcium channels; cited from earlier work
[18] = in vivo; cited from earlier work
[19] = phosphate salt; does not require refrigeration; cited from earlier work
[20] = tested on: rats; settings: cited from earlier work

## Nc1ccncc1 [4-AP, 4-aminopyridine]
[1]
  Incidence of adverse effects: less than 5%
[2]
  Peak amplitude of evoked potential in corpus callosum: increased following 4-AP acute administration and normalized to control levels
  Peak latency of evoked potential in corpus callosum: significantly decreased and normalized to control levels
[3]
  Social preference (index), three-chamber test: normalized social preference; also recorded: decreased and normalized to control levels
[4]
  Concentrations causing gradual depolarization of the axon resting potential: above 1 mM
[4]; normal adult myelinated axons
  Concentrations at which the action potential shows little or no sensitivity: below 100 μM
[5]
  Most effective concentration: about 10 μM
[6]
  Inhibition of Shaker channels: selectively and reversibly inhibits
[7]
  Fine motor skills, horizontal irregular ladder walking, forelimb and hindlimb: normalized fine motor skills; also recorded: rescued
[8]; 10 mg oral solution
  Cmax: 42.7 ng/mL
[8]; oral
  Absorption from the gastrointestinal tract: completely absorbed
[8]; two formulations of IR tablets
  Absolute bioavailability: 95%
[9]
  EMG peak amplitude (cortico-spinal tract): increased significantly; also recorded: increased following 4-AP acute administration
  EMG response latency (cortico-spinal tract): significantly shortened; also recorded: significantly decreased and normalized to control levels
[10]
  Time of peak plasma concentrations: within one hour

## Nc1ccncc1N.O=P(O)(O)O [Amifampridine, pyridine-3,4-diamine]
[11]; 20° C.
  Solubility in water: 25 mg/mL
[11]
  Solubility in diethyl ether: only slightly
  Solubility in methanol, ethanol and hot water: readily soluble
[12]; 91 healthy subjects, after a fatty meal
  Time to maximum concentrations in blood plasma: 1.3 (±0.9) hours
[12]; 91 healthy subjects, without food
  Time to maximum concentrations in blood plasma: 0.6 (±0.25) hours
[12]; 91 healthy subjects
  Area under the curve (AUC): 117 ± 77 ng·h/mL
  Biological half-life: 2.5±0.7 hrs
[12]; N-acetyltransferase activity
  AUC increase in slow metabolizers as compared to fast metabolizers: up to 9 fold
[12]; human, in vivo
  Eliminated via kidneys and urine as N-acetylamifampridine: 74-81%
  Eliminated via kidneys and urine in unchanged form: 19%
[12]; oral
  Absorbed from the gut: 93-100%

## CN1CCCC1CCOC(C)(c1ccccc1)c1ccc(Cl)cc1 (stereo not shown) [Clemastine]
[13]; oral clemastine, prolonged social isolation
  Impaired myelination: rescued
[13]; oral, 2 weeks, adult mice following prolonged social isolation
  Social avoidance behavior: successfully reverse social avoidance behavior
[14]
  Number of myelinating oligodendrocytes (mOLs) in cortex and CC midline: normalized
[14]; listed as clemastine
  Number of myelinating oligodendrocytes (mOLs) in cortex and CC midline: significantly increased and normalized to control levels

## CCCn1cnc2c(NCc3ccc(C)s3)nc(N[C@H](CC)CO)nc21 [GV-58]
[15]
  EC50: 6.8 µM
[16]
  EC50: 9.9 µM
[17]
  EC50: > 100 µM

## CC[N+](CC)(CC)CC.[Br-] [TEA, Tetraethylammonium]
[18]
  Oral activity: not orally active

## Nc1ccncc1N.O=P(O)(O)O [amifampridine phosphate, 4-aminopyridine-3-ylammonium dihydrogen phosphate]
[11]; phosphate salt
  Solubility in water: readily soluble in water
[19]
  Stability: stable

## Opicinumab: fully human monoclonal antibody, LINGO-1 protein antagonist (Anti-Lingo-1)
[20]
  Remyelination: 90%
